Here are results for one substance from patent EP0645451A1, “Heparin binding site structural analogues of fibroblast growth factors” (AMERICAN CYANAMID COMPANY, priority 1993, dated 1995).

Common to all, as to assay: Fluorescence quenching titration, thermodynamic dissociation constant (KD)
The target in assay [1] is FGF-1 (acidic FGF) (Homo sapiens, UniProt P05230). The note with it: tryptophan fluorescence quenching, 10 mM Tris-HCl, pH 7.4, 2 mM dithiothreitol, fitted with n binding sites per ligand, read-out: KD BCDS. The method, then:
(§1) FGF-2 contains a single tryptophan residue at position 123. […] Therefore, the fluorescence properties of FGF-2 and FGF-2 mutants in the presence and absence of heparin and a heparin mimic, β-cyclodextran tetradecasulfate (BCDS) are evaluated in this example.
(§2) Fluorescence titration measurements are conducted in a Perkin-Elmer LS-5 fluorospectrometer using excitation and emission wavelengths of 290 nm and 350 nm, respectively. Two milliliters of FGF solution in 10 mM Tris-HCl, pH 7.4, containing 2 mM of dithiothreitol are placed in a cuvette. […] Concentrations of FGF-2 and gln^128,138FGF-2 are 370 nM and 280 nM, respectively. […] An equivalent tryptophan residue, Trp122, exists in acidic FGF (FGF-1), for which similar fluorescence quenching is obtained.
The thermodynamic dissociation constant (KD) is obtained from plots of fluorescence intensity versus ligand concentration. The fluorescence intensity data are fitted by non-linear regression by using equation 1 below, where FO is observed fluorescence intensity, FI is initial intensity, Δ F is the difference between final and the initial fluorescence intensities, Ct is the total FGF protein concentration, KD is the thermodynamic dissociation constant, and Lt is the total heparin concentration. […] However, in the fluorescence titration experiments the titration curves shown in Figure 1 cannot be fitted directly using equation 1. […]

For assay [2], the target named is T1, human FGF-2 mutant gln¹³⁸FGF-2 (lysine-138 replaced by glutamine) (Homo sapiens, UniProt P09038, A136E/K271Q/S138E).
T1 construct: a synthetic gene encoding the 155 amino acid form of human FGF-2; made in house; host or cells: E. coli BL21 plys S
Type of assay: binding. The following applies: tryptophan fluorescence quenching, 10 mM Tris-HCl, pH 7.4, 2 mM dithiothreitol, read-out: KD BCDS. As to the method:
as §1, §2
(§3) The thermodynamic dissociation constant (KD) is obtained from plots of fluorescence intensity versus ligand concentration. The fluorescence intensity data are fitted by non-linear regression by using equation 1 below, where FO is observed fluorescence intensity, FI is initial intensity, Δ F is the difference between final and the initial fluorescence intensities, Ct is the total FGF protein concentration, KD is the thermodynamic dissociation constant, and Lt is the total heparin concentration. It is assumed in equation 1 that the stoichiometry of FGF and heparin in the complex is 1:1. A graphic software Kaleidagraph is used for handling data. [formula] However, in the fluorescence titration experiments the titration curves shown in Figure 1 cannot be fitted directly using equation 1. […] Since the heparin preparation used here is composed of an average of 20 sulfated monosaccharide units per chain, it is likely that more than one FGF molecule is bound per oligosaccharide chain. […] Moreover, it is reasonable to assume that, in the absence of any data to indicate otherwise, the binding sites on heparin are independent and the binding affinities are similar. […] Under this assumption, the effective concentration of the ligand needs to be adjusted by the multiplication of the actual concentrations by the number of possible binding sites. If n is the average number of FGF molecules bound per oligosaccharide, then equation 1 can be modified to give [formula] in which the effective concentration of the ligand is increased by n times.
(§4) Equation 2 is used to fit the data shown in Figure 1 and the values of the two variables, KD and n, are determined by non-linear regression of at least three titration curves for each molecule. An average of four (n = 4) FGF-2 molecules interacting with heparin is obtained. Four binding sites on each heparin molecule are assumed for mutant gln^128,138FGF-2. Since the molecular weight of heparin used in the experiments is about 5000, which has an average of 20 monosaccharide units, about 4 to 6 monosaccharide units may interact with each FGF molecule. Two to four FGF molecules can bind to one BCDS (which has a calculated molecular weight of 2226). This estimate is in good agreement with that reported by Mach, et al. (Biochemistry 32: 5480-5489 (1993)) of a stoichiometry of 1:4-6 determined by a variety of different approaches including light scattering and analytical ultracentrifugation analyses.
(§5) Table I presents the thermodynamic dissociation constants obtained from fluorescence quenching experiments for the wild-type FGF and the mutants using heparin or BCDS.

The target in assay [3] is T2, human FGF-2 mutant gln¹²⁸FGF-2 (lysine-128 replaced by glutamine) (Homo sapiens, UniProt P09038, A136E/K261Q/S138E).
T2 construct: a synthetic gene encoding the 155 amino acid form of human FGF-2; made in house; host or cells: E. coli BL21 plys S
It is filed as binding. The note with it: tryptophan fluorescence quenching, 10 mM Tris-HCl, pH 7.4, 2 mM dithiothreitol, read-out: KD BCDS. The method, then:
as §1, §2, §3, §4, §5

The target of assay [4] is T3, human FGF-2 mutant gln^128,138FGF-2 (lysine-128 and lysine-138 replaced by glutamine) (Homo sapiens, UniProt P09038, A136E/K261Q/K271Q/S138E).
T3 construct: a synthetic gene encoding the 155 amino acid form of human FGF-2; made in house; host or cells: E. coli BL21 plys S
Type of assay: binding. The note with it: tryptophan fluorescence quenching, 10 mM Tris-HCl, pH 7.4, 2 mM dithiothreitol, read-out: KD BCDS. As to the method:
as §1, §2, §3, §4, §5

Assay [5] concerns the target T4, human FGF-2 mutant gln¹²⁹FGF-2 (arginine-129 replaced by glutamine) (Homo sapiens, UniProt P09038, A136E/R262Q/S138E).
T4 construct: a synthetic gene encoding the 155 amino acid form of human FGF-2; made in house; host or cells: E. coli BL21 plys S
It is filed as binding. The note with it: tryptophan fluorescence quenching, 10 mM Tris-HCl, pH 7.4, 2 mM dithiothreitol, read-out: KD BCDS. As to the method:
as §1, §2, §3, §4, §5

Assay [6] addresses T5, human FGF-2, wild-type (recombinant glu^3,5FGF-2) (Homo sapiens, UniProt P09038, A136E/S138E).
T5 construct: a synthetic gene encoding the 155 amino acid form of human FGF-2; made in house; host or cells: E. coli BL21 plys S (stated for the mutants; inferred for the wild type)
It is filed as binding. The note with it: wild-type FGF-2; tryptophan fluorescence quenching, 10 mM Tris-HCl, pH 7.4, 2 mM dithiothreitol; read-out: KD BCDS. The method, then: as §1, §2, §3, §4, §5

The target in assay [7] is T6, human FGF-2 mutant gln¹³⁴FGF-2 (lysine-134 replaced by glutamine) (Homo sapiens, UniProt P09038, A136E/K267Q/S138E).
T6 construct: a synthetic gene encoding the 155 amino acid form of human FGF-2; made in house; host or cells: E. coli BL21 plys S
Type of assay: binding. The following applies: tryptophan fluorescence quenching, 10 mM Tris-HCl, pH 7.4, 2 mM dithiothreitol, read-out: KD BCDS. The method, then:
as §1, §2, §3, §4, §5

Assay [8] concerns the target T7, human FGF-2 mutant gln^129,134FGF-2 (arginine-129 and lysine-134 replaced by glutamine) (Homo sapiens, UniProt P09038, A136E/K267Q/R262Q/S138E).
T7 construct: a synthetic gene encoding the 155 amino acid form of human FGF-2; made in house; host or cells: E. coli BL21 plys S
It is filed as binding. The note with it: tryptophan fluorescence quenching, 10 mM Tris-HCl, pH 7.4, 2 mM dithiothreitol, read-out: KD BCDS. As to the method: as §1, §2, §3, §4, §5

T4 sequence (P09038 134-288 A136E/S138E/R262Q): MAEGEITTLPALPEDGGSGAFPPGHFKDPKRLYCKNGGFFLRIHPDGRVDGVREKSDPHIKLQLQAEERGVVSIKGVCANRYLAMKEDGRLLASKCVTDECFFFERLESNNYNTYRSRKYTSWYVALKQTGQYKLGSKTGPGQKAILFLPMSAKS
T5 sequence (P09038 134-288 A136E/S138E): as the sequence (P09038 134-288 A136E/S138E/R262Q) above, with Q129R counted along it
T6 sequence (P09038 134-288 A136E/S138E/K267Q): as the sequence (P09038 134-288 A136E/S138E/R262Q) above, with Q129R, K134Q counted along it
T1 sequence (P09038 134-288 A136E/S138E/K271Q): as the sequence (P09038 134-288 A136E/S138E/R262Q) above, with Q129R, K138Q counted along it
T7 sequence (P09038 134-288 A136E/S138E/R262Q/K267Q): as the sequence (P09038 134-288 A136E/S138E/R262Q) above, with K134Q counted along it
T2 sequence (P09038 134-288 A136E/S138E/K261Q): as the sequence (P09038 134-288 A136E/S138E/R262Q) above, with K128Q, Q129R counted along it
T3 sequence (P09038 134-288 A136E/S138E/K261Q/K271Q): as the sequence (P09038 134-288 A136E/S138E/R262Q) above, with K128Q, Q129R, K138Q counted along it
Sequence of FGF-1 (acidic FGF) (P05230 whole entry, species assumed): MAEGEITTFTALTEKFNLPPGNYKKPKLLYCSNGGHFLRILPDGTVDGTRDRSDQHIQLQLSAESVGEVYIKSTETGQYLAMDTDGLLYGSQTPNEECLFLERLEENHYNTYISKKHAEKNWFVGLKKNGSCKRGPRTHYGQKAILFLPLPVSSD

As for β-cyclodextran tetradecasulfate [BCDS], the dissociation constant Kd – broadly, the constant that tells how readily two partners part at equilibrium – stood at 4 ± 2 nM in assay [1]; 228 ± 23 nM in assay [2]; 178 ± 44 nM in assay [3]; 2700 ± 600 nM in assay [4]; 3 ± 1 nM in assay [5]; 14 ± 7 nM in assay [6]. Also, the Kd in assay [7] was determined as 12 ± 0.1 nM; in assay [8] it was 130 ± 27 nM.
